Assay results taken from PubChem BioAssay AID2060503 (Molecular Pharmacology Branch, DTP, NCI, 2025).

Tested on: 817829-284-R-J1-PDC complex spheroids, viability
Assay: Anticancer human tumor 817829-284-R-J1-PDC patient-derived colon adenocarcinoma cell line growth inhibition [GQUAD]
Conditions: for IC50: curve of first compound; for viability, T/C: stronger effect = lower value
Method in brief: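 Viability of tumor cells grown as complex spheroids with endothelial and stromal cells, exposed to drug combinations. Top concentration at or near clinical Cmax (else 10 microM), diluted in half-log increments.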

[1] = second compound 0.0316 µM, first compound 0.0316 µM
[2] = second compound 0.0316 µM, first compound 0.1 µM
[3] = second compound 0.0316 µM, first compound 0.316 µM
[4] = second compound 0.0316 µM, first compound 1 µM
[5] = second compound 0.0316 µM, first compound 3.16 µM
[6] = second compound 0.0316 µM, first compound 10 µM
[7] = second compound 0.1 µM, first compound 0.0316 µM
[8] = second compound 0.1 µM, first compound 0.1 µM
[9] = second compound 0.1 µM, first compound 0.316 µM
[10] = second compound 0.1 µM, first compound 1 µM
[11] = second compound 0.1 µM, first compound 3.16 µM
[12] = second compound 0.1 µM, first compound 10 µM
[13] = second compound 0.316 µM, first compound 0.0316 µM
[14] = second compound 0.316 µM, first compound 0.1 µM
[15] = second compound 0.316 µM, first compound 0.316 µM
[16] = second compound 0.316 µM, first compound 1 µM
[17] = second compound 0.316 µM, first compound 3.16 µM
[18] = second compound 0.316 µM, first compound 10 µM
[19] = second compound 1 µM, first compound 0.0316 µM
[20] = second compound 1 µM, first compound 0.1 µM
[21] = second compound 1 µM, first compound 0.316 µM
[22] = second compound 1 µM, first compound 1 µM
[23] = second compound 1 µM, first compound 3.16 µM
[24] = second compound 1 µM, first compound 10 µM
[25] = second compound 3.16 µM, first compound 0.0316 µM
[26] = second compound 3.16 µM, first compound 0.1 µM
[27] = second compound 3.16 µM, first compound 0.316 µM
[28] = second compound 3.16 µM, first compound 1 µM
[29] = second compound 3.16 µM, first compound 3.16 µM
[30] = second compound 3.16 µM, first compound 10 µM
[31] = second compound 10 µM, first compound 0.0316 µM
[32] = second compound 10 µM, first compound 0.1 µM
[33] = second compound 10 µM, first compound 0.316 µM
[34] = second compound 10 µM, first compound 1 µM
[35] = second compound 10 µM, first compound 3.16 µM
[36] = second compound 10 µM, first compound 10 µM
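Further: spheroids exposed to agents for 7 days before readout.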
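Wherever viability, T/C is given: percent viability relative to DMSO vehicle control taken as 100%.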

CC(C)n1c(=O)n(C)c2cnc3cc(F)c(-c4ccc(OCCCN5CCCCC5)nc4)cc3c21 + Cc1cnc(CNC(=O)c2c(=O)c3ccc(N4CCCN(C)CC4)nc3n3c2sc2ccccc23)cn1
IC50 (second compound 0.0316 µM): < 31.6 nM | IC50 (second compound 0.1 µM): < 31.6 nM | IC50 (second compound 0.316 µM): < 31.6 nM | IC50 (second compound 1 µM): < 31.6 nM | IC50 (second compound 3.16 µM): < 31.6 nM | IC50 (second compound 10 µM): < 31.6 nM | viability, T/C [1]: 37.7% | viability, T/C [2]: 32.1% | viability, T/C [3]: 36.5% | viability, T/C [4]: 25.1% | viability, T/C [5]: 26.6% | viability, T/C [6]: 12.1% | viability, T/C [7]: 30.4% | viability, T/C [8]: 27.3% | viability, T/C [9]: 31.3% | viability, T/C [10]: 23.4% | viability, T/C [11]: 22.9% | viability, T/C [12]: 14.6% | viability, T/C [13]: 23.7% | viability, T/C [14]: 28.1% | viability, T/C [15]: 23.1% | viability, T/C [16]: 21.5% | viability, T/C [17]: 24.4% | viability, T/C [18]: 9.33% | viability, T/C [19]: 19.7% | viability, T/C [20]: 21.1% | viability, T/C [21]: 21.9% | viability, T/C [22]: 23.1% | viability, T/C [23]: 24.2% | viability, T/C [24]: 8.09% | viability, T/C [25]: 16.6% | viability, T/C [26]: 18.5% | viability, T/C [27]: 19% | viability, T/C [28]: 21% | viability, T/C [29]: 18.8% | viability, T/C [30]: 7.12% | viability, T/C [31]: 0.15% | viability, T/C [32]: 0.17% | viability, T/C [33]: 0.18% | viability, T/C [34]: 0.17% | viability, T/C [35]: 0.18% | viability, T/C [36]: 0.18%

C=CCn1c(=O)c2cnc(Nc3ccc(N4CCN(C)CC4)cc3)nc2n1-c1cccc(C(C)(C)O)n1 + Cc1[nH]c2ccc(F)cc2c1-c1nc2c3cccnc3c3ncccc3c2[nH]1
IC50 (second compound 0.0316 µM): 220 nM | IC50 (second compound 0.1 µM): 240 nM | IC50 (second compound 0.316 µM): 259 nM | IC50 (second compound 1 µM): 221 nM | IC50 (second compound 3.16 µM): < 31.6 nM | IC50 (second compound 10 µM): < 31.6 nM | viability, T/C [1]: 101% | viability, T/C [2]: 92.9% | viability, T/C [3]: 30.2% | viability, T/C [4]: 8.8% | viability, T/C [5]: 6.61% | viability, T/C [6]: 5.37% | viability, T/C [7]: 82.1% | viability, T/C [8]: 111% | viability, T/C [9]: 35.2% | viability, T/C [10]: 7.33% | viability, T/C [11]: 6.25% | viability, T/C [12]: 4.08% | viability, T/C [13]: 97.2% | viability, T/C [14]: 109% | viability, T/C [15]: 38.9% | viability, T/C [16]: 8.37% | viability, T/C [17]: 6.05% | viability, T/C [18]: 4.81% | viability, T/C [19]: 104% | viability, T/C [20]: 103% | viability, T/C [21]: 26.2% | viability, T/C [22]: 8.6% | viability, T/C [23]: 6.38% | viability, T/C [24]: 4.1% | viability, T/C [25]: 46.1% | viability, T/C [26]: 30.2% | viability, T/C [27]: 8.17% | viability, T/C [28]: 5.38% | viability, T/C [29]: 4.83% | viability, T/C [30]: 4.49% | viability, T/C [31]: 28.6% | viability, T/C [32]: 14.8% | viability, T/C [33]: 6.57% | viability, T/C [34]: 4.68% | viability, T/C [35]: 5.07% | viability, T/C [36]: 4.08%

CC(C)(O)C1CCC(Nc2ccc3ncc(-c4cccc(C(F)(F)F)c4)n3n2)CC1 (stereo not given) + Cc1cnc(CNC(=O)c2c(=O)c3ccc(N4CCCN(C)CC4)nc3n3c2sc2ccccc23)cn1
IC50 (second compound 0.0316 µM): 527 nM | IC50 (second compound 0.1 µM): < 31.6 nM | IC50 (second compound 0.316 µM): < 31.6 nM | IC50 (second compound 1 µM): < 31.6 nM | IC50 (second compound 3.16 µM): < 31.6 nM | IC50 (second compound 10 µM): < 31.6 nM | viability, T/C [1]: 63.1% | viability, T/C [2]: 53.3% | viability, T/C [3]: 76.1% | viability, T/C [4]: 32.3% | viability, T/C [5]: 5.43% | viability, T/C [6]: 13.3% | viability, T/C [7]: 31.4% | viability, T/C [8]: 36.8% | viability, T/C [9]: 26% | viability, T/C [10]: 20.4% | viability, T/C [11]: 7.21% | viability, T/C [12]: 8.8% | viability, T/C [13]: 22.4% | viability, T/C [14]: 25.3% | viability, T/C [15]: 25.3% | viability, T/C [16]: 16.4% | viability, T/C [17]: 1.35% | viability, T/C [18]: 3.38% | viability, T/C [19]: 16.6% | viability, T/C [20]: 21.5% | viability, T/C [21]: 21% | viability, T/C [22]: 15.8% | viability, T/C [23]: 0.04% | viability, T/C [24]: 0.05% | viability, T/C [25]: 20.8% | viability, T/C [26]: 18% | viability, T/C [27]: 19.1% | viability, T/C [28]: 9.34% | viability, T/C [29]: 0.09% | viability, T/C [30]: 0.09% | viability, T/C [31]: 0.11% | viability, T/C [32]: 0.13% | viability, T/C [33]: 0.17% | viability, T/C [34]: 0.12% | viability, T/C [35]: 0.19% | viability, T/C [36]: 0.18%

COc1cccc2c1C(=O)c1c(O)c3c(c(O)c1C2=O)CC(O)(C(=O)CO)CC3OC1CC(N)C(O)C(C)O1 (stereo not given) + Cc1[nH]c2ccc(F)cc2c1-c1nc2c3cccnc3c3ncccc3c2[nH]1
IC50 (second compound 0.0316 µM): 88.3 nM | IC50 (second compound 0.1 µM): 94.3 nM | IC50 (second compound 0.316 µM): 98.7 nM | IC50 (second compound 1 µM): 84.4 nM | IC50 (second compound 3.16 µM): 64 nM | IC50 (second compound 10 µM): < 31.6 nM | viability, T/C [1]: 106% | viability, T/C [2]: 31.4% | viability, T/C [3]: 35.2% | viability, T/C [4]: 9.62% | viability, T/C [5]: 0.98% | viability, T/C [6]: 0.2% | viability, T/C [7]: 79.8% | viability, T/C [8]: 46.1% | viability, T/C [9]: 29.7% | viability, T/C [10]: 14% | viability, T/C [11]: 0.63% | viability, T/C [12]: 0.15% | viability, T/C [13]: 86.2% | viability, T/C [14]: 44.8% | viability, T/C [15]: 32.1% | viability, T/C [16]: 14.2% | viability, T/C [17]: 0.67% | viability, T/C [18]: 0.16% | viability, T/C [19]: 80.5% | viability, T/C [20]: 38% | viability, T/C [21]: 31.3% | viability, T/C [22]: 13.7% | viability, T/C [23]: 1% | viability, T/C [24]: 0.19% | viability, T/C [25]: 80.9% | viability, T/C [26]: 26.3% | viability, T/C [27]: 18.9% | viability, T/C [28]: 7.18% | viability, T/C [29]: 0.69% | viability, T/C [30]: 0.27% | viability, T/C [31]: 22.1% | viability, T/C [32]: 12.8% | viability, T/C [33]: 11.3% | viability, T/C [34]: 3.41% | viability, T/C [35]: 0.48% | viability, T/C [36]: 0.46%

CC1COCCN1c1cc(C2(S(C)(=N)=O)CC2)nc(-c2ccnc3[nH]ccc23)n1 (stereo not given) + Cc1cnc(CNC(=O)c2c(=O)c3ccc(N4CCCN(C)CC4)nc3n3c2sc2ccccc23)cn1
IC50 (second compound 0.0316 µM): 200 nM | IC50 (second compound 0.1 µM): < 31.6 nM | IC50 (second compound 0.316 µM): < 31.6 nM | IC50 (second compound 1 µM): < 31.6 nM | IC50 (second compound 3.16 µM): < 31.6 nM | IC50 (second compound 10 µM): < 31.6 nM | viability, T/C [1]: 82.8% | viability, T/C [2]: 71.1% | viability, T/C [3]: 36.1% | viability, T/C [4]: 15.2% | viability, T/C [5]: 12.5% | viability, T/C [6]: 10.4% | viability, T/C [7]: 47.3% | viability, T/C [8]: 37.9% | viability, T/C [9]: 24.1% | viability, T/C [10]: 14.4% | viability, T/C [11]: 11.4% | viability, T/C [12]: 8.15% | viability, T/C [13]: 29.1% | viability, T/C [14]: 29.6% | viability, T/C [15]: 22.2% | viability, T/C [16]: 16.5% | viability, T/C [17]: 12.6% | viability, T/C [18]: 9.19% | viability, T/C [19]: 29.2% | viability, T/C [20]: 27.2% | viability, T/C [21]: 21.3% | viability, T/C [22]: 17.1% | viability, T/C [23]: 10.8% | viability, T/C [24]: 8.91% | viability, T/C [25]: 21.5% | viability, T/C [26]: 23.8% | viability, T/C [27]: 22.3% | viability, T/C [28]: 15.2% | viability, T/C [29]: 12.8% | viability, T/C [30]: 8.2% | viability, T/C [31]: 0.17% | viability, T/C [32]: 0.16% | viability, T/C [33]: 0.21% | viability, T/C [34]: 0.24% | viability, T/C [35]: 0.23% | viability, T/C [36]: 0.24%
